# Laboratory results from US12077537B2 (Gilead Sciences, Inc., priority 2020, dated 2024).
# Tested on: HIV-IIIb
# Test: Antiviral assay in MT4 cells
# Format: cell-based
# Details: Human immunodeficiency virus 1, MT4, 120 h; MT-4 cells mixed with HIV-IIIb at m.o.i. 0.003; 5 days at 37° C.; CellTiter-Glo luminescence; 50% decrease in signal, a measure of HIV-1 replication
# Outline: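 MT-4 cells were infected with HIV-IIIb at m.o.i. 0.003 for 1 hour, then added to 3-fold serially diluted compound (10 concentrations, quadruplicate) in medium with 10% FBS. After 5 days at 37° C, cell viability was read by CellTiter-Glo chemiluminescence.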
row,EC50,Structure (SMILES)
1,34.5 nM,"Cn1nc(NS(C)(=O)=O)c2c(Cl)ccc(-c3cc4c(nc3[C@H](Cc3cc(F)cc(F)c3)NC(=O)Cn3nc(C(F)F)c5c3C(F)(F)[C@@H]3C[C@H]53)NCC(=O)N4)c21 [Example 108, N—((S)-1-(7-(4-chloro-1-methyl-3-(methylsulfonamido)-1H-indazol-7-yl)-2-oxo-1,2,3,4-tetrahydropyrido[2,3-b]pyrazin-6-yl)-2-(3,5-difluorophenyl)ethyl)-2-((3bS,4aR)-3-(difluoromethyl)-5,5-difluoro-3b,4,4a,5-tetrahydro-1H-cyclopropa[3,4]cyclopenta[1,2-c]pyrazol-1-yl)acetamide]"
2,36.8 nM,"Cn1nc(NS(C)(=O)=O)c2c(Cl)ccc(-c3cc4[nH]c(=O)[nH]c4nc3[C@H](Cc3cc(F)cc(F)c3)NC(=O)Cn3nc(C(F)F)c4c3C(F)(F)[C@@H]3C[C@H]43)c21 [Example 109, N—((S)-1-(6-(4-chloro-1-methyl-3-(methylsulfonamido)-1H-indazol-7-yl)-2-oxo-2,3-dihydro-1H-imidazo[4,5-b]pyridin-5-yl)-2-(3,5-difluorophenyl)ethyl)-2-((3bS,4aR)-3-(difluoromethyl)-5,5-difluoro-3b,4,4a,5-tetrahydro-1H-cyclopropa[3,4]cyclopenta[1,2-c]pyrazol-1-yl)acetamide]"
3,11.9 nM,"Cn1nc(NS(C)(=O)=O)c2c(Cl)ccc(-c3cc4nc(C5CC5)oc4nc3[C@H](Cc3cc(F)cc(F)c3)NC(=O)Cn3nc(C(F)F)c4c3C(F)(F)[C@@H]3C[C@H]43)c21 [Example 110, N—((S)-1-(6-(4-chloro-1-methyl-3-(methylsulfonamido)-1H-indazol-7-yl)-2-cyclopropyloxazolo[5,4-b]pyridin-5-yl)-2-(3,5-difluorophenyl)ethyl)-2-((3bS,4aR)-3-(difluoromethyl)-5,5-difluoro-3b,4,4a,5-tetrahydro-1H-cyclopropa[3,4]cyclopenta[1,2-c]pyrazol-1-yl)acetamide]"
4,156 nM,"CC1(O)CN(c2nc3cc(-c4ccc(F)c(C(N)=O)c4)c([C@H](Cc4cc(F)cc(F)c4)NC(=O)Cn4nc(C(F)(F)F)c5c4C(F)(F)[C@@H]4C[C@H]54)nc3o2)C1 [Example 111, 5-(5-((S)-1-(2-((3bS,4aR)-5,5-difluoro-3-(trifluoromethyl)-3b,4,4a,5-tetrahydro-1H-cyclopropa[3,4]cyclopenta[1,2-c]pyrazol-1-yl)acetamido)-2-(3,5-difluorophenyl)ethyl)-2-(3-hydroxy-3-methylazetidin-1-yl)oxazolo[5,4-b]pyridin-6-yl)-2-fluorobenzamide]"
5,3.8 nM,"Cn1nc(NS(C)(=O)=O)c2c(Cl)ccc(-c3cc4sc(O)nc4nc3[C@H](Cc3cc(F)cc(F)c3)NC(=O)Cn3nc(C(F)F)c4c3C(F)(F)[C@@H]3C[C@H]43)c21 [Example 112, N—((S)-1-(6-(4-chloro-1-methyl-3-(methylsulfonamido)-1H-indazol-7-yl)-2-hydroxythiazolo[4,5-b]pyridin-5-yl)-2-(3,5-difluorophenyl)ethyl)-2-((3bS,4aR)-3-(difluoromethyl)-5,5-difluoro-3b,4,4a,5-tetrahydro-1H-cyclopropa[3,4]cyclopenta[1,2-c]pyrazol-1-yl)acetamide]"
6,8.1 nM,"Cn1nc(NS(C)(=O)=O)c2cccc(-c3cc4sc(O)nc4nc3[C@H](Cc3cc(F)cc(F)c3)NC(=O)Cn3nc(C(F)(F)F)c4c3C(F)(F)[C@@H]3C[C@H]43)c21 [Example 113, 2-((3bS,4aR)-5,5-difluoro-3-(trifluoromethyl)-3b,4,4a,5-tetrahydro-1H-cyclopropa[3,4]cyclopenta[1,2-c]pyrazol-1-yl)-N—((S)-2-(3,5-difluorophenyl)-1-(2-hydroxy-6-(1-methyl-3-(methylsulfonamido)-1H-indazol-7-yl)thiazolo[4,5-b]pyridin-5-yl)ethyl)acetamide]"
